Tests used:
Caco-2 cells [1] = test: MTT antiproliferative assay; type: cell-based, Human; settings: Caco-2 cell line, 72 h incubation, mean ± SE
Experimental: Human colorectal adenocarcinoma Caco-2 cells were kindly provided by Dr. Edith Brot-Laroche (Universite Pierre et Marie Curie-Paris 6 UMR S872, Les Cordeliers, France) and were maintained in a humidified atmosphere of 5% CO2 at 37 °C in Dulbecco’s Modified Eagles medium (DMEM) (Gibco Invitrogen, Paisley, UK) supplemented with 20% fetal bovine serum, 1% non-essential amino acids, 1% penicillin (1000 U/mL), 1% streptomycin ([…]) and 1% amphotericin (250 U/mL). For treatment, gold complexes were initially dissolved in DMSO to a concentration of 20 mM and then diluted on cell culture without fetal bovine serum to the required work concentrations, which was added 24 h post-seeding. Then, cells were incubated at 37 °C for the required time for each assay.
Cell viability was determined with the 3-(4,5-dimethyl-2-thiazoyl)-2,5-diphenyltetrazolium bromide (MTT) assay as previously described by Mármol et al.. For IC50 calculation, cells were grown in 96-well plates at a density of 4000 cells per well and incubated overnight at standard culture conditions. Then, cells were exposed 72 h to 0–20 μM of each gold complex and changes in absorbance were converted into percentage of growth inhibition in comparison to negative control (DMSO. Absorbance was measured with SPECTROstar Nano (BMG Labtech).

Caco-2 cells [2] = test: Intracellular ROS levels; type: cell-based, Human; settings: Caco-2 cells, 10, 20 and 40 μM, 1 h incubation; p > 0.05
Experimental: Caco-2 cells were grown in 96-well plates (4000 cells/well) and incubated overnight at 5% CO2 and 37 °C. Then, cells were exposed to the required concentration of gold complex for 1 h and total intracellular ROS levels determination was performed as previously described by Sanchez-de-Diego et al..

S. enterica 25928 = test: Disk diffusion test; type: cell-based; settings: complex 5 μg, 24 h incubation; diameter including disk (6 mm)
Experimental: To evaluate the antibacterial potential of gold derivatives, […] bacterial strains were selected: E. coli, P. aeruginosa, S. enterica, E. faecalis, L. monocytogenes, S. epidermidis, S. aureus. Dis diffusion assay was performed following Clinical & Laboratory Standards Institute (CLSI) recommendations. Active cultures (0.5 McFarland) from all strains were spread onto Mueller–Hinton Agar (MHA, Oxoid, Basingstoke, UK) and disks impregnated with 10 µL of each gold complex or control (DMSO for negative control, phenol for positive control) were placed. Plates were and incubated for 22 h ± 2 h at 37 °C ± 1 °C and then the diameter of the inhibition zone was determined.

[3] = biological target: thioredoxin reductase (TrxR) (Escherichia coli, UniProt P0A9P4); settings: E. coli cell lysates incubated with complex
thioredoxin reductase (TrxR), sequence (P0A9P4 whole entry): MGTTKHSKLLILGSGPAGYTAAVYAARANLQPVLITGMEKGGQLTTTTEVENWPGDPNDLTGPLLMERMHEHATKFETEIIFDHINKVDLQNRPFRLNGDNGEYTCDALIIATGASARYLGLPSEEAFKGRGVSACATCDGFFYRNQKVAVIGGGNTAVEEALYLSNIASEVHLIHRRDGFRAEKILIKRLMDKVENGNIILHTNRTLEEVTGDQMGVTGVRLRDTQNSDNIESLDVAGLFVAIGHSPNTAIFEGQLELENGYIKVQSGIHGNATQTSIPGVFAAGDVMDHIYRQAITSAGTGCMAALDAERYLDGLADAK
Experimental: For sample preparation, E. coli were lysated by sonication. After ultrasonic homogenization, the lysate was centrifuged 1 min at 13,000 rpm and the pellet was resuspended in extraction buffer. […] Both extraction and reaction buffer consisted of 10 mM Tris-HCl, 1 mM EDTA, 100 mM NaCl and protease inhibitor.

With `Cn1cc[n+](C)[c]1[Au-][C]#CCOc1c(-c2ccc(Br)cc2)oc2ccccc2c1=O` [1b, [Au(Lb)(IMe)] (R = Br; IMe = C5H10N2)] as the compound, how does the IC50 (Caco-2 cells [1]) read?
Its IC50 is 23 ± 2.42 µM.

What about the “reactive oxygen species (ROS) levels” value (Caco-2 cells [2]) of the same compound?
Its value is “no significant changes”.

And the “Inhibition Zone” value (S. enterica 25928)?
The value was 8.90 ± 1.56 mm.

And the “TrxR activity (percentage respect to control)” value [3]?
The value was “did not result in a significative reduction of TrxR activity”.
